Experimental data from US12285489B2, “Bone targeted antimicrobial oxazolidinone related compounds, formulations thereof, and uses thereof” (priority 2018, dated 2025).
≈ marks a conversion by molar mass, not a printed value. Like-named read-outs stand apart in the source and are kept apart here.

How the values were obtained:
Assay type in all cases: cell-based
S. aureus [1] = test: Antimicrobial susceptibility (MIC/MBEC), standard assays in polystyrene wells; details: for MIC: Staphylococcus aureus
S. aureus [2] = test: Preventative hydroxyapatite (HA) experiment; details: K-W test, p<0.01; comparator=control; FIG. 16
Excerpt: FIG. 16 depicts the results of a preventative hydroxyapatite (HA) experiment with tested compounds against S. aureus.
FIG. 16 depicts the results of a preventative hydroxyapatite (HA) experiment with tested compounds against S. aureus. […] (K-W test, * p<0.01; comparator=control). The results were obtained using standard assays.

S. aureus biofilm [3] = test: Ex vivo rat femur biofilm prevention setting; details: rat femurs saturated with compound; K-W test, p<0.01; comparator=control; FIG. 18B
Excerpt: (§1) FIG. 18A is a picture of rat femurs saturated with antibiotics or the conjugates after they are introduced to a solution of S. aureus in our ex vivo preventative experimental setting. The more the bone appears red, the more staphylococcal biofilms there are adhered to the surface in those regions.
as §1, with “depicts” for “is”

S. aureus biofilm [4] = test: Ex vivo rat femur biofilm eradication setting; details: K-W test, p<0.01, comparator=control, FIG. 18B
Aa = test: Antimicrobial susceptibility (MIC/MBEC), standard assays in polystyrene wells
[5] = S. aureus, polystyrene wells, read-out: MIC

Structure (SMILES) | MIC (S. aureus [1]; [5]) [µg/mL] | MIC (Aa) [µg/mL] | MBEC (S. aureus [1]; S. aureus, polystyrene wells) [µg/mL] | efficacy for preventing the growth of staphylococcal cells on HA (S. aureus [2]) | S. aureus biofilm prevention on femurs ex vivo (S. aureus biofilm [3]) | S. aureus biofilm eradication on femurs ex vivo (S. aureus biofilm [4]) | MBEC (Aa) [µg/mL] | MIC (S. aureus [1]) [µg/mL]
Cn1nnc(-c2ccc(-c3ccc(N4C[C@H](COC(=O)Nc5ccc(CC(P(=O)(O)O)P(=O)(O)O)cc5)OC4=O)cc3F)cn2)n1 [BCT, (R)-(2-(4-((((3-(3-fluoro-4-(6-(2-methyl-2H-tetrazol-5-yl)pyridin-3-yl)phenyl)-2-oxooxazolidin-5-yl)methoxy)carbonyl)amino)phenyl)ethane-1,1-diyl)bis(phosphonic acid)] | 16 (≈ 23.6 µM) |  | 32 |  |  |  |  | 
Cn1nnc(-c2ccc(-c3ccc(N4C[C@H](COC(=O)c5ccc(CC(P(=O)(O)O)P(=O)(O)O)cc5)OC4=O)cc3F)cn2)n1 [BET, (R)-(2-(4-(((3-(3-fluoro-4-(6-(2-methyl-2H-tetrazol-5-yl)pyridin-3-yl)phenyl)-2-oxooxazolidin-5-yl)methoxy)carbonyl)phenyl)ethane-1,1-diyl)bis(phosphonic acid)] | 4 (≈ 6.04 µM) |  | 16 | statistically significant efficacy for preventing the growth of staphylococcal cells | significantly prevented or eradicated biofilm growth | significantly prevented or eradicated biofilm growth |  | 
Cn1nnc(-c2ccc(-c3ccc(N4C[C@H](CO)OC4=O)cc3F)cn2)n1 [T, Tedizolid] | 0.5 (≈ 1.35 µM) |  | 8 |  |  |  |  | 
CN[C@H](CC(C)C)C(=O)N[C@H]1C(=O)N[C@@H](CC(N)=O)C(=O)N[C@H]2C(=O)N[C@H]3C(=O)N[C@H](C(=O)N[C@H](C(=O)O)c4cc(O)cc(O)c4-c4cc3ccc4O)[C@H](O)c3ccc(c(Cl)c3)Oc3cc2cc(c3O[C@@H]2O[C@H](CO)[C@@H](O)[C@H](O)[C@H]2O[C@H]2C[C@](C)(N)[C@H](O)[C@H](C)O2)Oc2ccc(cc2Cl)[C@H]1O [V, Vancomycin] |  |  | 8 |  |  |  |  | 1 (≈ 0.69 µM)

Continued, in another order:

MIC (S. aureus [1]; [5]) [µg/mL] | MIC (Aa) [µg/mL] | Structure (SMILES) | MBEC (S. aureus [1]; S. aureus, polystyrene wells) [µg/mL] | efficacy for preventing the growth of staphylococcal cells on HA (S. aureus [2]) | S. aureus biofilm prevention on femurs ex vivo (S. aureus biofilm [3]) | S. aureus biofilm eradication on femurs ex vivo (S. aureus biofilm [4]) | MBEC (Aa) [µg/mL] | MIC (S. aureus [1]) [µg/mL]
0.5 (≈ 1.51 µM) | 0.5 (≈ 1.51 µM) | O=C(O)c1cn(C2CC2)c2cc(N3CCNCC3)c(F)cc2c1=O [C, Ciprofloxacin] | 32 |  |  |  | 8 | 
0.25 (≈ 0.546 µM) | 2 (≈ 4.37 µM) | CN(C)c1ccc(O)c2c1C[C@H]1C[C@H]3[C@H](N(C)C)C(O)=C(C(N)=O)C(=O)[C@@]3(O)C(O)=C1C2=O [M, Minocycline] | 16 |  |  |  | 8 | 
0.05 (≈ 0.125 µM) | 0.05 (≈ 0.125 µM) | COc1c(N2C[C@@H]3CCCN[C@@H]3C2)c(F)cc2c(=O)c(C(=O)O)cn(C3CC3)c12 [X, Moxifloxacin] | 0.5 |  |  |  | 0.1 | 
